Experimental data as given in patent US7563805B2, “Tri-, tetra-substituted-3-aminopyrrolidine derivative” (Daiichi Pharmaceutical Co., Ltd., priority 2005, dated 2009).
≈ marks a conversion by molar mass, not a printed value. Where two headings read alike, the source gives them in different places.

Experiments:
E. faecalis, ATCC 19433 = experiment: antibacterial activity (MIC), standard method of Japanese Society of Chemotherapy
E. coli NIHJ = experiment: as above
S. aureus, 209P = experiment: as above
S. marscecens, 10100 = experiment: as above
P. aeruginosa, 32121 = experiment: as above
[1] = tested on: S. aureus, 87037 (LVFX-resistant MRSA); experiment: as above
S. epidermidis, 56500 = experiment: as above
[2] = tested on: S. pneumoniae, J24 (penicillin-intermediate resistant bacteria); experiment: as above
P. vulgaris, 08601 = experiment: as above
P. aeruginosa, 32104 = experiment: as above
hERG K+ channel = hERG K+ channel (Homo sapiens, UniProt Q12809); experiment: hERG-K^+ channel blocking effect
Sequence of hERG K+ channel (Q12809 whole entry): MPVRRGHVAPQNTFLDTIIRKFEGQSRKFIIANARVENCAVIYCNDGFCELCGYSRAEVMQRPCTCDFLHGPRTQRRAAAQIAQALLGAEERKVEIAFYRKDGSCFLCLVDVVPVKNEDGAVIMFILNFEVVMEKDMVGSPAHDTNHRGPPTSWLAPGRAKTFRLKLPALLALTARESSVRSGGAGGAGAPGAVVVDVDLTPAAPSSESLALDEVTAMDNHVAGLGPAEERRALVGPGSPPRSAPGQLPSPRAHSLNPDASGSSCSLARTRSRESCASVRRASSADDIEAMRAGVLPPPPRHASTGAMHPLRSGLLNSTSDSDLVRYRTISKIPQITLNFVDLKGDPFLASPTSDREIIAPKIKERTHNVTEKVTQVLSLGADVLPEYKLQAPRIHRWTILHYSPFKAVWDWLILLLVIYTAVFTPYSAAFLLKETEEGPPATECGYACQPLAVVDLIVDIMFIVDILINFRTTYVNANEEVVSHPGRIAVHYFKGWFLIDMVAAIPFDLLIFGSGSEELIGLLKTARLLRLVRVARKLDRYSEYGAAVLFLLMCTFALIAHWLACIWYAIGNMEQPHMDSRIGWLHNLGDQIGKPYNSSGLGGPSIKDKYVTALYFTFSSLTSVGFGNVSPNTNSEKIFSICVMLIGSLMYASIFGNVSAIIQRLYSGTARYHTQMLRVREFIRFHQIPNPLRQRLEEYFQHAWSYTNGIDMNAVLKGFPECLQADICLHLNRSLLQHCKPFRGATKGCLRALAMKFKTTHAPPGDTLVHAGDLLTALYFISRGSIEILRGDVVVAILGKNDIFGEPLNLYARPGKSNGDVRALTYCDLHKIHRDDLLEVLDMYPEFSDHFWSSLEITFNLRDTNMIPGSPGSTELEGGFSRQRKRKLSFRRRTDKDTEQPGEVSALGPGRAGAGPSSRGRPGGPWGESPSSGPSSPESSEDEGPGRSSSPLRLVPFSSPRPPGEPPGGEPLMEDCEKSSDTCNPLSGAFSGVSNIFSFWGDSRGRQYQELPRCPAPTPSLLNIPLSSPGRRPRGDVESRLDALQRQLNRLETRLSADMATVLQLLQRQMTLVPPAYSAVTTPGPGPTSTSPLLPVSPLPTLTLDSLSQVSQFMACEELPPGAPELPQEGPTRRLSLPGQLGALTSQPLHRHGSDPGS

[3] = Enterococcus faecalis, ATCC19433, E. faecalis
[4] = Staphylococcus aureus, MRSA, S. aureus, 87037 (LVFX-resistant MRSA)
[5] = Staphylococcus epidermidis, 56500, S. epidermidis
[6] = Proteus vulgaris, 08601, P. vulgaris

Row | Structure (SMILES) | MIC (E. faecalis, ATCC 19433; [3]) [µg/mL] | MIC (E. coli NIHJ; Escherichia coli) [µg/mL] | MIC (S. aureus, 209P; Staphylococcus aureus) [µg/mL] | MIC (S. marscecens, 10100) [µg/mL] | MIC (P. aeruginosa, 32121; Pseudomonas aeruginosa) [µg/mL] | MIC [1, 4] [µg/mL] | MIC (S. epidermidis, 56500; [5]) [µg/mL] | MIC ([2]; Streptococcus pneumoniae) [µg/mL] | MIC (P. vulgaris, 08601; [6]) [µg/mL] | MIC (P. aeruginosa, 32104; Pseudomonas aeruginosa) [µg/mL] | melting point | other results
1 | COc1c(N2CC(C)C(C)(N)C2)c(F)cc2c(=O)c(C(=O)O)cn([C@@H]3C[C@@H]3F)c12 (relative stereo) [Example 1, 7-[(3R*,4S*)-3-Amino-3,4-dimethylpyrrolidin-1-yl]-6-fluoro-1-[(1R,2S)-2-fluorocyclopropyl]-8-methoxy-1,4-dihydro-4-oxoguinoline-3-carboxylic acid] | 0.2 (≈ 0.491 µM) | 0.025 (≈ 0.0614 µM) | 0.025 (≈ 0.0614 µM) | 0.2 (≈ 0.491 µM) | 0.2 (≈ 0.491 µM) | 0.78 (≈ 1.91 µM) | 0.1 (≈ 0.245 µM) | 0.1 (≈ 0.245 µM) | 0.05 (≈ 0.123 µM) | 0.39 (≈ 0.957 µM) | – | –
2 | COc1c(N2CC(CF)C(C)(N)C2)c(F)cc2c(=O)c(C(=O)O)cn([C@@H]3C[C@@H]3F)c12 (single isomer, unassigned) [Example 8, 7-[(3R*,4S*)-3-Amino-4-fluoromethyl-3-methylpyrrolidin-1-yl]-6-fluoro-1-[(1R,2S)-2-fluorocyclopropyl]-8-methoxy-1,4-dihydro-4-oxoguinoline-3-carboxylic acid] | 0.2 (≈ 0.47 µM) | 0.012 (≈ 0.0282 µM) | 0.025 (≈ 0.0588 µM) | 0.2 (≈ 0.47 µM) | 0.2 (≈ 0.47 µM) | 0.78 (≈ 1.83 µM) | 0.1 (≈ 0.235 µM) | 0.1 (≈ 0.235 µM) | 0.025 (≈ 0.0588 µM) | 0.78 (≈ 1.83 µM) | 186 to 189 °C | inhibition at 30 µM (hERG K+ channel): 1.5 ± 1.8%; inhibition at 100 µM (hERG K+ channel): 2.1 ± 2.3%; inhibition at 300 µM (hERG K+ channel): 2.3 ± 7.3%
3 | COc1c(N2CC(C)(N)C3(CC3)C2)c(F)cc2c(=O)c(C(=O)O)cn([C@@H]3C[C@@H]3F)c12 (stereo partly drawn) [Example 10, 7-(7-Amino-7-methyl-5-azaspiro[2.4]heptan-5-yl)-6-fluoro-1-[(1R,2S)-2-fluorocyclopropyl]-8-methoxy-1,4-dihydro-4-oxoguinoline-3-carboxylic acid] | – | – | – | 0.2 (≈ 0.477 µM) | – | – | – | – | – | – | – | MIC (E. faecalis, ATCC 19433; E. faecalis): 0.78 µg/mL (≈ 1.86 µM); MIC (E. coli NIHJ; E. coli NIHJ): 0.025 µg/mL (≈ 0.0596 µM); MIC (S. aureus, 209P): 0.05 µg/mL (≈ 0.119 µM); MIC (P. aeruginosa, 32121; P. aeruginosa): 0.2 µg/mL (≈ 0.477 µM); MIC ([1]; S. aureus, 87037 (LVFX-resistant MRSA)): 1.56 µg/mL (≈ 3.72 µM); MIC (S. epidermidis, 56500; S. epidermidis): 0.2 µg/mL (≈ 0.477 µM); MIC [2]: 0.39 µg/mL (≈ 0.93 µM); MIC (P. vulgaris, 08601; P. vulgaris): 0.05 µg/mL (≈ 0.119 µM); MIC (P. aeruginosa, 32104; P. aeruginosa): 0.39 µg/mL (≈ 0.93 µM)
4 | C=C1CN(c2c(F)cc3c(=O)c(C(=O)O)cn([C@@H]4C[C@@H]4F)c3c2OC)C[C@@]1(C)N [Example 15, 7-[(3S)-3-Amino-3-methyl-4-methylenepyrrolidine-1-yl]-6-fluoro-1-[(1R,2S)-2-fluorocyclopropyl]-8-methoxy-1,4-dihydro-4-oxoquinoline-3-carboxylic acid] | 0.2 (≈ 0.493 µM) | 0.012 (≈ 0.0296 µM) | 0.05 (≈ 0.123 µM) | 0.2 (≈ 0.493 µM) | 0.2 (≈ 0.493 µM) | 0.78 (≈ 1.92 µM) | 0.1 (≈ 0.247 µM) | 0.1 (≈ 0.247 µM) | 0.025 (≈ 0.0617 µM) | 0.39 (≈ 0.962 µM) | 100 to 102 °C | –
5 | C[C@H]1COc2c(N3CC(C)(N)C4(CC4)C3)c(F)cc3c(=O)c(C(=O)O)cn1c23 (stereo partly drawn) [Example 16, (3S)-10-(7-Amino-7-methyl-5-azaspiro[2.4]heptane-5-yl)-9-fluoro-2,3-dihydro-3-methyl-7-oxo-7H-pyrido[1,2,3-de][1,4]benzoxazine-6-carboxylic acid] | 0.39 (≈ 1.01 µM) | 0.012 (≈ 0.031 µM) | 0.025 (≈ 0.0645 µM) | 0.1 (≈ 0.258 µM) | 0.05 (≈ 0.129 µM) | 3.13 (≈ 8.08 µM) | 0.1 (≈ 0.258 µM) | 0.2 (≈ 0.516 µM) | 0.006 (≈ 0.0155 µM) | 0.1 (≈ 0.258 µM) | 268 to 270 °C | –
6 | C=C1CN(c2c(F)cc3c(=O)c(C(=O)O)cn([C@@H]4C[C@@H]4F)c3c2OC)C[C@]1(C)N [Example 17, 7-[(3R)-3-Amino-3-methyl-4-methylenepyrrolidine-1-yl]-6-fluoro-1-[(1R,2S)-2-fluorocyclopropyl]-8-methoxy-1,4-dihydro-4-oxoquinoline-3-carboxylic acid] | 0.2 (≈ 0.493 µM) | 0.006 (≈ 0.0148 µM) | 0.025 (≈ 0.0617 µM) | 0.1 (≈ 0.247 µM) | 0.1 (≈ 0.247 µM) | 0.39 (≈ 0.962 µM) | 0.1 (≈ 0.247 µM) | 0.1 (≈ 0.247 µM) | 0.012 (≈ 0.0296 µM) | 0.39 (≈ 0.962 µM) | 236 to 239 °C (dec.) | –
7 | COc1c(N2C[C@H](CF)[C@](C)(N)C2)c(F)cc2c(=O)c(C(=O)O)cn(C3CC3)c12 [Example 21, 7-[(3S,4S)-3-Amino-4-fluoromethyl-3-methylpyrrolidin-1-yl]-1-cyclopropyl-6-fluoro-8-methoxy-1,4-dihydro-4-oxoquinoline-3-carboxylic acid] | 0.2 (≈ 0.491 µM) | 0.012 (≈ 0.0295 µM) | 0.025 (≈ 0.0614 µM) | 0.2 (≈ 0.491 µM) | 0.2 (≈ 0.491 µM) | 0.78 (≈ 1.91 µM) | 0.1 (≈ 0.245 µM) | 0.1 (≈ 0.245 µM) | 0.05 (≈ 0.123 µM) | 0.78 (≈ 1.91 µM) | 226 to 229 °C | –
8 | Cc1c(N2C[C@H](CF)[C@](C)(N)C2)c(F)cc2c(=O)c(C(=O)O)cn(C3CC3)c12 [Example 23, 7-[(3S,4S)-3-Amino-4-fluoromethyl-3-methylpyrrolidin-1-yl]-1-cyclopropyl-6-fluoro-8-methyl-1,4-dihydro-4-oxoquinoline-3-carboxylic acid] | 0.1 (≈ 0.255 µM) | ≤ 0.003 | 0.025 (≈ 0.0639 µM) | 0.05 (≈ 0.128 µM) | 0.05 (≈ 0.128 µM) | 0.39 (≈ 0.996 µM) | 0.05 (≈ 0.128 µM) | 0.05 (≈ 0.128 µM) | 0.006 (≈ 0.0153 µM) | – | 212 to 215 °C | inhibition at 30 µM (hERG K+ channel): 3 ± 4.1%; inhibition at 100 µM (hERG K+ channel): 4.6 ± 4.7%; inhibition at 300 µM (hERG K+ channel): 16.7 ± 8.4%
9 | COc1c(N2CC(C)[C@@](N)(CF)C2)c(F)cc2c(=O)c(C(=O)O)cn([C@@H]3C[C@@H]3F)c12 (stereo partly drawn) [Example 28, 7-[(3S)-3-Amino-3-fluoromethyl-4-methylpyrrolidin-1-yl]-6-fluoro-1-[(1R,2S)-2-fluoro-1-cyclopropyl]-8-methoxy-1,4-dihydro-4-oxoquinoline-3-carboxylic acid] | 0.2 (≈ 0.47 µM) | 0.025 (≈ 0.0588 µM) | 0.025 (≈ 0.0588 µM) | 0.39 (≈ 0.917 µM) | 0.39 (≈ 0.917 µM) | 0.2 (≈ 0.47 µM) | 0.05 (≈ 0.118 µM) | 0.1 (≈ 0.235 µM) | 0.05 (≈ 0.118 µM) | – | 167 to 169 °C | –
10 | Cc1c(N2CC3(CC3)[C@](C)(N)C2)ccc2c(=O)c(C(=O)O)cn([C@@H]3C[C@@H]3F)c12 [Example 29, 7-[(7S)-7-Amino-7-methyl-5-azaspiro[2.4]heptan-5-yl]-1-[(1R,2S)-2-fluorocyclopropyl]-8-methyl-1,4-dihydro-4-oxoquinoline-3-carboxylic acid] | 0.78 (≈ 2.02 µM) | 0.05 (≈ 0.13 µM) | 0.05 (≈ 0.13 µM) | 0.2 (≈ 0.519 µM) | 0.1 (≈ 0.259 µM) | 3.13 (≈ 8.12 µM) | 0.2 (≈ 0.519 µM) | 0.39 (≈ 1.01 µM) | 0.025 (≈ 0.0649 µM) | 0.2 (≈ 0.519 µM) | 157 to 159 °C | –
11 | Cc1c(N2CC3(CC3)[C@](C)(N)C2)ccc2c(=O)c(C(=O)O)cn(C3CC3)c12 [Example 30, 7-[(7S)-7-Amino-7-methyl-5-azaspiro[2.4]heptan-5-yl]-1-cyclopropyl-8-methyl-1,4-dihydro-4-oxoquinoline-3-carboxylic acid] | 0.39 (≈ 1.06 µM) | 0.006 (≈ 0.0163 µM) | 0.05 (≈ 0.136 µM) | 0.1 (≈ 0.272 µM) | 0.05 (≈ 0.136 µM) | 1.56 (≈ 4.25 µM) | 0.2 (≈ 0.544 µM) | 0.2 (≈ 0.544 µM) | 0.025 (≈ 0.068 µM) | 0.2 (≈ 0.544 µM) | 227 to 230 °C | –
12 | Cc1c(N2CC(C)[C@@](N)(CF)C2)c(F)cc2c(=O)c(C(=O)O)cn([C@@H]3C[C@@H]3F)c12 (stereo partly drawn) [Example 31, 7-[(3S)-3-Amino-3-fluoromethyl-4-methylpyrrolidin-1-yl]-6-fluoro-1-[(1R,2S)-2-fluoro-1-cyclopropyl]-8-methyl-1,4-dihydro-4-oxoquinoline-3-carboxylic acid] | 0.1 (≈ 0.244 µM) | 0.006 (≈ 0.0147 µM) | 0.012 (≈ 0.0293 µM) | 0.1 (≈ 0.244 µM) | 0.05 (≈ 0.122 µM) | 0.1 (≈ 0.244 µM) | 0.025 (≈ 0.0611 µM) | 0.05 (≈ 0.122 µM) | 0.012 (≈ 0.0293 µM) | – | 200 to 203 °C | –
13 | COc1c(N2CCNC(C)C2)c(F)cc2c(=O)c(C(=O)O)cn(C3CC3)c12 (stereo not drawn) [GTFX, gatifloxacin, reference compound] | 0.39 (≈ 1.04 µM) | 0.006 (≈ 0.016 µM) | 0.05 (≈ 0.133 µM) | 0.1 (≈ 0.266 µM) | 0.1 (≈ 0.266 µM) | – | 0.2 (≈ 0.533 µM) | 0.2 (≈ 0.533 µM) | 0.006 (≈ 0.016 µM) | 0.2 (≈ 0.533 µM) | – | MIC ([1]; Staphylococcus aureus, MRSA): 1.56 µg/mL (≈ 4.16 µM); inhibition at 30 µM (hERG K+ channel): 8.1 ± 6%; inhibition at 100 µM (hERG K+ channel): 17.6 ± 11.5%; inhibition at 300 µM (hERG K+ channel): 39 ± 10.8%
14 | C[C@H]1COc2c(N3CCN(C)CC3)c(F)cc3c(=O)c(C(=O)O)cn1c23 [LVFX, levofloxacin, reference compound] | 0.78 (≈ 2.16 µM) | 0.012 (≈ 0.0332 µM) | 0.2 (≈ 0.553 µM) | 0.1 (≈ 0.277 µM) | 0.1 (≈ 0.277 µM) | > 6.25 | 0.39 (≈ 1.08 µM) | 0.78 (≈ 2.16 µM) | 0.012 (≈ 0.0332 µM) | 0.2 (≈ 0.553 µM) | – | –
